For 5 molecules, DC50 and IC50 results are on record in patent publication EP4567035A1, “NOVEL COMPOUND AS HYPOXIA-INDUCIBLE FACTOR 1(HIF-1) INHIBITOR OR VASCULAR ENDOTHELIAL GROWTH FACTOR (VEGF) INHIBITOR, AND PHARMACEUTICAL COMPOSITION COMPRISING SAME” (Nextgen Bioscience Co., Ltd., priority 2022, dated 2024).

Molecules are shown by their SMILES.

One assay concerns the target T1, HIF-1α (Homo sapiens, UniProt Q16665).
T1 construct: endogenous in cells; host or cells: ARPE-19 (ATCC CRL-2302)
Description: Analysis of HIF-1α protein expression (Western blot) in ARPE-19 cells under mixed hypoxic condition. It counts as cell-based. The following applies: values marked * in the table, mixed hypoxic condition (1% oxygen + CoCl2) for 24 hours, concentration range at which HIF-1α expression is reduced by 50% vs untreated control, read-out: IC50 HIF-1α, Hypoxia(24h). A digest of the protocol:
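ARPE-19 cells were pretreated 16 h or 2 h with compound (0.1 nM–10 µM, serum-free DMEM/F12), then held 1 h or 24 h in mixed hypoxia (1% O2 plus CoCl2). HIF-1α was quantified by Western blot against β-actin; the concentration range giving ≥50% reduction vs untreated control was reported.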
Background: A western blot detects proteins with antibodies after separation by electrophoresis.

The next assay deals with VEGF. Description: Evaluation of VEGF protein secretion level (Human VEGF ELISA) in ARPE-19 cell medium under hypoxic conditions. The assay is classed as cell-based. The following applies: ARPE-19 cells; pretreated 2 hours, 24 hours hypoxic conditions; secreted VEGF in medium supernatant by ELISA; concentration range reducing VEGF by 50% vs untreated control; read-out: IC50 VEGF. Put shortly:
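Human ARPE-19 cells were pretreated 2 h with compound (0.1 nM–10 µM, in DMEM/F12 with 1% FBS), then held 24 h in hypoxia (1% O2, 5% CO2). Secreted VEGF in the supernatant was quantified by ELISA (A450). The value is the concentration range giving ≥50% VEGF reduction versus untreated control.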

T1 sequence (Q16665 whole entry): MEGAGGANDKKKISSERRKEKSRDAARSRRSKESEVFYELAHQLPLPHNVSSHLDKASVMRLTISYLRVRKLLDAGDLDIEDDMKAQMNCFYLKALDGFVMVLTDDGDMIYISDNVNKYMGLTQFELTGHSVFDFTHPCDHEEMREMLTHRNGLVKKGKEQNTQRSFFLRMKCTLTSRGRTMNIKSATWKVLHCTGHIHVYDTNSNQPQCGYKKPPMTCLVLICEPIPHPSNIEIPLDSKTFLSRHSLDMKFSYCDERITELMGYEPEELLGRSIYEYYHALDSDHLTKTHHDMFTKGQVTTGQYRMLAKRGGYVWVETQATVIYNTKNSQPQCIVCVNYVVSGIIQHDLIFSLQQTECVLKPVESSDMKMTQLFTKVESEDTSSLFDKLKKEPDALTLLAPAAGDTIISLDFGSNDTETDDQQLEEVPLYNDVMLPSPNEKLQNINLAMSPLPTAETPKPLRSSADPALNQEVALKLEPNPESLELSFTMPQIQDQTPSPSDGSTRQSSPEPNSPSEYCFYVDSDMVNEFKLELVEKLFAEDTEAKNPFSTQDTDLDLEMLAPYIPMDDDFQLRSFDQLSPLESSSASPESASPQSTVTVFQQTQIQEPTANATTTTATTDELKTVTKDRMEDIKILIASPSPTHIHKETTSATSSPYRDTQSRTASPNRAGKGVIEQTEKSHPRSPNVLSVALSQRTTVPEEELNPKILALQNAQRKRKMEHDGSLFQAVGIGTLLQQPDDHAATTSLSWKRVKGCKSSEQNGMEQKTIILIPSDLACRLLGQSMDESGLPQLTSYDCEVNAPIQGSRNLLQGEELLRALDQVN

On to `O=C(NCc1cc(F)cc(-n2cc(-c3ccc(F)cc3)cn2)c1)c1ncnc2nc(C3CCCC3)[nH]c12` [Example 149, 8-Cyclopentyl-N-(3-fluoro-5-(4-(4-fluorophenyl)-1H-pyrazol-1-yl)benzyl)-7H-purine-6-carboxamide], for which the DC50 at HIF-1α lay in the range of 100 to 1000 nM. Further, the IC50 (usually the concentration that gives 50% inhibition) in the assay with VEGF was greater than 10000 nM.

With `COC(=O)C(Cc1ccc(-n2cc(-c3cc(F)cc(CNC(=O)c4ncnc5nc(C6CCCC6)[nH]c45)c3)cn2)cc1)NC(=O)c1ncnc2nc(C3CCCC3)[nH]c12` (stereo not shown) [Example 150, Methyl 2-(8-cyclopentyl-7H-purine-6-carboxamido)-3-(4-(4-(3-((8-cyclopentyl-7H-purine-6-carboxamido)methyl)-5-fluorophenyl)-1H-pyrazol-1-yl)phenyl)propanoate], on HIF-1α, the DC50 is 100 to 1000 nM. Also, the concentration for half-maximal inhibition (IC50) with VEGF is greater than 10000 nM.

As to `[2H]C([2H])([2H])n1cc(Nc2cc(F)cc(CNC(=O)c3ncnc4nc(C5CCCC5)[nH]c34)c2)cn1` [Example 151, 8-Cyclopentyl-N-(3-fluoro-5-((1-(methyl-d3)-1H-pyrazol-4-yl)amino)benzyl)-7H-purine-6-carboxamide], on HIF-1α, the DC50 is less than 100 nM. Further, the IC50 in the assay on VEGF lay within 100 to 1000 nM.

Take `[2H]C([2H])([2H])n1cc(Nc2cc(F)cc(CNC(=O)c3ncnc4nc(C5CCC(F)(F)C5)[nH]c34)c2)cn1` (stereo not shown) [Example 152, 8-(3,3-Difluorocyclopentyl)-N-(3-fluoro-5-((1-(methyl-d3)-1H-pyrazol-4-yl)amino)benzyl)-7H-purine-6-carboxamide]: the DC50 on HIF-1α is less than 100 nM. Also, the IC50 in the assay on VEGF fell in the range of 100 to 1000 nM.

Consider `[2H]C1([2H])C(c2nc3ncnc(C(=O)NCc4cc(F)cc(-c5cnn(-c6ccc(F)cc6)c5)c4)c3[nH]2)C([2H])([2H])C([2H])([2H])C1([2H])[2H]` [Example 153, 8-(Cyclopentyl-2,2,3,3,4,4,5,5-d8)-N-(3-fluoro-5-(1-(4-fluorophenyl)-1H-pyrazol-4-yl)benzyl)-7H-purine-6-carboxamide], for which the DC50 on HIF-1α is less than 100 nM. The IC50 with VEGF is 100 to 1000 nM.
